For 67 compounds, EC50 and inhibition results are on record in patent US20120053148A1, “INHIBITORS OF HEPATITIS C VIRUS” (GILEAD SCIENCES, INC., priority 2010, published 2012).

The test system of the first assay is HCV Replicon IB. Put plainly: HCV replicon assay in Huh-7 cells, genotype 1b (Rluc luciferase readout). Format: cell-based, hepatitis C virus. The settings on record: HCV1B replicon, Huh-7 cells, 3 days; read-out: EC50_HCV1B_. For orientation: In antiviral work, replicon cells carry a viral genome segment that copies itself.
As to `Cc1cc(-c2nnc(NC3CCC(O)(CF)C3)o2)nc2c(C(C)(C)C)cc(OCC(F)(F)F)cc12` (stereo not shown) [Compound 490], the EC50 was 50 nM.
Consider `CC(C)(C)c1cc(C2CC2)cc2c(N)cc(C(=O)NCC3CS(=O)(=O)CCN3)nc12` (stereo not shown) [Compound 324], for which the EC50 turned out to be 3.63 nM.

Staying with this assay, now noted: Hepatitis C virus, 72 h; 10 uM; 1b-Rluc replicon, Huh-7 cells, 3 days; read-out: Inhibition @ 10 uM in 1b-Rluc.
In the case of `CCC(CNC(=O)c1cc(Cl)c2cc(OC(F)F)cc(C(F)(F)F)c2n1)=NOC` [Compound 206], the inhibition (as a rule, the percentage by which the read-out fell short of the control) at 10 µM came to 64%.
On to `Cc1cc(C(=O)NC[C@H]2CC(F)(F)CN2)nc2c(C(F)(F)F)cc(C3CC3)cc12` [Compound 128], for which the inhibition at 10 µM is 99.4%.
In the case of `Cc1cc(-c2nnc(NCC3OCCO3)s2)nc2c(C(F)(F)F)cc(C3CC3)cc12` [Compound 297], the inhibition at 10 µM was 100%.
For `O=C(NC[C@@H]1CC(F)(F)CCN1)c1cc(Cl)c2cc(OC(F)F)cc(C(F)(F)F)c2n1` (single isomer, unassigned) [Compound 203], the inhibition at 10 µM is 98.3%.
`CC(=O)N1CCOCC1CNC(=O)c1cc(C)c2cc(C3CC3)cc(C(F)(F)F)c2n1` (stereo not shown) [Compound 101]: the inhibition at 10 µM came to 73.3%.
Consider `O=C(NCC1COCCN1)c1cc(O)c2cc(C3CC3)cc(C(F)(F)F)c2n1` (stereo not shown) [Compound 217], for which the inhibition at 10 µM is 77%.
Consider `CCCCOc1cc(C(F)(F)F)c2nc(C(=O)NCc3ccccn3)cc(C)c2c1` [Compound 183], for which the inhibition at 10 µM amounted to 88.8%.
For the compound `Cc1cc(-c2nnc(NCCCCCO)o2)nc2c(C(F)(F)F)cc(C3CC3)cc12` [Compound 259], the inhibition at 10 µM is 98.4%.
`O=C(NCC1COCCN1)c1cc(C(F)F)c2cc(C3CC3)cc(C(F)(F)F)c2n1` (stereo not shown) [Compound 213]: the inhibition at 10 µM was found to be 88.7%.
On to `Cc1cc(C(=O)NC[C@H]2CC(F)(F)CN2)nc2c(C(F)(F)F)cc(OC(F)F)cc12` [Compound 190], for which the inhibition at 10 µM is 94.7%.
For the compound `O=C(NC[C@@H]1C[C@@H](F)CN1)c1cc(Cl)c2cc(OC(F)F)cc(C(F)(F)F)c2n1` (single isomer, unassigned) [Compound 199], the inhibition at 10 µM came to 98.1%.
On to `Cc1cc(C(=O)NCc2ccc(C#N)cn2)nc2c(C(F)(F)F)cc(C3CC3)cc12` [Compound 112], for which the inhibition at 10 µM came out at 99.7%.
Regarding `Cc1cc(C(=O)NCc2ccccn2)nc2c(C(F)(F)F)cc(N)cc12` [Compound 178], the inhibition at 10 µM came out at 86.9%.
Still for that read-out and setting: under `CCC(=O)CNC(=O)c1cc(Cl)c2cc(OC(F)F)cc(C(F)(F)F)c2n1` [Compound 205] stands 99.2%; under `Cc1cc(C(=O)NC[C@@H]2CC(O)CN2)nc2c(C(F)(F)F)cc(OC(F)F)cc12` (stereo partly shown) [Compound 191], 50.2%.
`Cc1cc(-c2nnc(NCC3(C#N)CC3)o2)nc2c(C(F)(F)F)cc(C3CC3)cc12` [Compound 268]: the inhibition at 10 µM stood at 99.4%.
In the case of `CC(C)(C)c1cc(C2CC2)cc2c(O)cc(C(=O)NCc3ccccn3)nc12` [Compound 227], the inhibition at 10 µM was 100%.
As for `Cc1cc(-c2nnc(NCC(C)(C)CO)o2)nc2c(C(F)(F)F)cc(C3CC3)cc12` [Compound 260], the inhibition at 10 µM stood at 96.7%.
Turning to `COCCCNC(=O)c1cc(C)c2cc(C3CC3)cc(C(F)(F)F)c2n1` [Compound 120], the inhibition at 10 µM came out at 99.8%.
Regarding `Cc1cc(-c2nnc(NCC(C)(C)CO)s2)nc2c(C(F)(F)F)cc(C3CC3)cc12` [Compound 304], the inhibition at 10 µM came to 96.2%.
With `Cc1cc(-c2nnc(N)s2)nc2c(C(F)(F)F)cc(C3CC3)cc12` [Compound 305], the inhibition at 10 µM amounted to 96.6%.
Still for that read-out and setting: under `Cc1cc(-c2nnc(NCC3(C)OCCO3)o2)nc2c(C(F)(F)F)cc(C3CC3)cc12` [Compound 247] stands 100%; under `CCC(O)CNC(=O)c1cc(Cl)c2cc(OC(F)F)cc(C(F)(F)F)c2n1` (stereo not shown) [Compound 204], 95.5%.
Take `Cc1cc(C(F)(F)F)c2nc(C(=O)NCc3ccccn3)cc(C)c2c1` [Compound 143]: the inhibition at 10 µM was determined as 93.7%.
Consider `Cc1cc(C(=O)NCc2ccccn2)nc2c(C(F)(F)F)cc(C3=CCCC3)cc12` [Compound 149], for which the inhibition at 10 µM was 99.4%.
As for `Cc1cc(C(=O)NCc2cc(CN3CCOCC3)ccn2)nc2c(C(F)(F)F)cc(C3CC3)cc12` [Compound 130], the inhibition at 10 µM was 84.7%.
On to `COCCNc1nnc(-c2cc(C)c3cc(OC)cc(C(F)(F)F)c3n2)o1` [Compound 275], for which the inhibition at 10 µM amounted to 99.7%.
Turning to `Cc1cc(C(=O)NCCCO)nc2c(C(F)(F)F)cc(-c3ccccc3)cc12` [Compound 164], the inhibition at 10 µM worked out at 94.6%.
With `Cc1cc(C(=O)NCc2cnccn2)nc2c(C(F)(F)F)cc(C3CC3)cc12` [Compound 89], the inhibition at 10 µM was determined as 100%.
For `Cc1cc(C(=O)NCC2(NC(=O)OC(C)(C)C)CC2)nc2c(C(F)(F)F)cc(C3CC3)cc12` [Compound 87], the inhibition at 10 µM amounted to 84.5%.
Still for that read-out and setting: under `Cc1cc(-c2nnc(NCc3ncc[nH]3)o2)nc2c(C(F)(F)F)cc(C3CC3)cc12` [Compound 257] stands 99.7%; under `Cc1cc(C(=O)NCc2cccc(F)n2)nc2c(C(F)(F)F)cc(C3CC3)cc12` [Compound 80], 99.8%; under `CCCCNc1nnc(-c2cc(C)c3cc(C4CC4)cc(C(F)(F)F)c3n2)s1` [Compound 288], 100%.
On to `Nc1cc(C(=O)NCC2(O)CC2)nc2c(C(F)(F)F)cc(C3CC3)cc12` [Compound 221], for which the inhibition at 10 µM worked out at 98.8%.
As for `Cc1cc(-c2nnc(NCCC3OCCO3)s2)nc2c(C(F)(F)F)cc(C3CC3)cc12` [Compound 294], the inhibition at 10 µM was 99.9%.
For the compound `Cc1cc(-c2nnc(NCCS(C)(=O)=O)o2)nc2c(C(F)(F)F)cc(C3CC3)cc12` [Compound 265], the inhibition at 10 µM came to 98%.

Staying with this assay, now noted: Hepatitis C virus, Huh-7, 72 h, HCV1B replicon, Huh-7 cells, 3 days; read-out: EC50_HCV1B_.
With `Cc1cc(-c2nnc(Nc3cn[nH]c3)s2)nc2c(C(F)(F)F)cc(C3CC3)cc12` [Compound 313], the EC50 was 10.2 nM.
Same read-out and setting: with `Cc1cc(-c2nnc(N[C@H]3C[S@@+]([O-])C3)o2)nc2c(C(C)(C)C)cc(OCC(F)(F)F)cc12` [Compound 507] the figure was 19.1 nM; with `CC(C)(C)c1cc(C2CC2)cc2c(N)cc(-c3nnc(NCC(F)(F)F)o3)nc12` [Compound 345], 560 nM; with `CCO[C@H]1CN[C@H](CNC(=O)c2cc(N)c3cc(C4CC4)cc(C(C)(C)C)c3n2)C1` [Compound 330], 19.8 nM.
For the compound `Cc1cc(C(=O)NCc2ncccn2)nc2c(OC(F)F)cc(OC(F)F)cc12` [Compound 447], the EC50 is 37.5 nM.
Consider `Nc1nnc(-c2cc(N)c3cc(C4CC4)cc(C(F)(F)F)c3n2)s1` [Compound 373], for which the EC50 is 65 nM.
Regarding `Cc1cc(-c2nnc(NCCC(C)(C)O)o2)nc2c(C(C)(C)C)cc(C3CC3)cc12` [Compound 409], the EC50 came to 9.43 nM.
Same read-out and setting: with `Cc1cc(-c2nnc(NCC3OCCO3)o2)nc2c(C(C)(C)C)cc(OCC(F)F)cc12` [Compound 526] the figure was 1.64 nM; with `Cc1cc(-c2nnc(NCC3OCCO3)o2)nc2c(C3(C)SCCS3)cc(C3CC3)cc12` [Compound 544], 46.7 nM; with `Cc1cc(-c2nnc(N[C@@H]3CCOC3)o2)nc2c(C(C)(C)C)cc(OCC(F)(F)F)cc12` [Compound 450], 3.15 nM.
Still for that read-out and setting: under `Cc1cc(C(=O)NC[C@@H]2CC3(CCN2)OCCO3)nc2c(C(C)(C)C)cc(C3CC3)cc12` [Compound 428] stands 834 nM; under `Cc1cc(-c2nnc(N[C@H]3CC[C@@H](O)CC3)o2)nc2c(C(C)(C)C)cc(OCC(F)(F)F)cc12` [Compound 498], 2.39 nM.
Take `CCCCCNc1nnc(-c2cc(C)c3cc(C4CC4)cc(C(F)(F)F)c3n2)o1` [Compound 388]: the EC50 is 13.2 nM.
For `Cc1cc(-c2nnc(N[C@H]3CC[C@@](C)(O)C3)o2)nc2c(C(C)(C)C)cc(OCC(F)(F)F)cc12` (racemic) [Compound 474], the EC50 was found to be 1.02 nM.
As for `Cc1cc(-c2nnc(N[C@H]3C[C@](O)(CF)C3)o2)nc2c(C(C)(C)C)cc(OCCF)cc12` [Compound 529], the EC50 was determined as 1.37 nM.
Consider `Cc1cc(C(=O)NCc2ncccn2)nc2c(OC(F)(F)F)cc(C3CC3)cc12` [Compound 440], for which the EC50 is 10.2 nM.
Take `Cc1cc(-c2nnc(NCC3(C)COC3)o2)nc2c(C(C)(C)C)cc(OCC(F)(F)F)cc12` [Compound 486]: the EC50 came out at 1850 nM.
With `CCCO[C@H]1CN[C@H](CNC(=O)c2cc(N)c3cc(C4CC4)cc(C(C)(C)C)c3n2)C1` [Compound 331], the EC50 was found to be 243 nM.
Consider `Cc1cc(-c2nnc(NC3CC(O)C3)o2)nc2c(C(C)(C)C)cc(OCC(F)(F)F)cc12` (stereo not shown) [Compound 461], for which the EC50 is 1.38 nM.
Take `Cc1nnc(-c2cc(OC(F)(F)F)cc3c(N)cc(C(=O)NCc4ccccn4)nc23)[nH]1` [Compound 339]: the EC50 was 1230 nM.
As for `Cc1cc(C(=O)NCC2COC2)nc2c(C(C)(C)C)cc(C3CC3)cc12` [Compound 424], the EC50 is 488 nM.
`Cc1cc(-c2nnc(NCC3COC(C)(C)O3)o2)nc2c(C(C)(C)C)cc(C3CC3)cc12` (stereo not shown) [Compound 415]: the EC50 was 85 nM.
Same read-out and setting: under `Cc1cc(-c2nnc(N(CO)CC3OCCO3)o2)nc2c(C(C)(C)C)cc(C3CC3)cc12` [Compound 404] stands 2.18 nM; under `CC(C)(C)c1cc(C2CC2)cc2c(N)cc(-c3nnc(NCCCC(F)(F)F)o3)nc12` [Compound 356], 10.6 nM.
On to `Cc1cc(C(=O)NC[C@@H]2CSCN2)nc2c(C(C)(C)C)cc(C3CC3)cc12` [Compound 427], for which the EC50 came to 7.44 nM.
As for `Cc1cc(-c2nnc(NCCO)s2)nc2c(C(F)(F)F)cc(C3CC3)cc12` [Compound 308], the EC50 was found to be 66 nM.
In the case of `CC(C)(C)c1cc(C2CC2)cc2c(N)cc(-c3nnc(NC4CCCC4)o3)nc12` [Compound 348], the EC50 is 5.27 nM.

Staying with this assay, now noted: Hepatitis C virus, Huh-7, 72 h; read-out: EC50_HCV1B_.
Regarding `Cc1cc(-c2nnc(N[C@H]3C[C@@](CF)(OP(=O)(O)O)C3)o2)nc2c(C(C)(C)C)cc(OCC(F)(F)F)cc12` [Compound 470], the EC50 was 0.72 nM.
Same read-out and setting: under `Cc1cc(-c2nnc(N[C@H]3C[C@@H](O)C3)o2)nc2c(C(C)(C)C)cc(OCC(C)C)cc12` [Compound 534] stands 154 nM.
